# Test system: RKO p21 uninduced (proliferating) colon adenocarcinoma cells
# Experiment: Alamar Blue cell viability assay, RKO p21 uninduced (proliferating)
# Type: cell-based
# Details: Homo sapiens, Table B3, anti-proliferative/cytotoxic activity, 72 hours, read-out: −log EC50 RKO p21 uninduced (proliferating) (converted)
# Outline: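 Viability read by Alamar Blue fluorescence (ex 544, em 590 nm), normalised to untreated wells, after 72 h, 37° C, 5% CO2 compound exposure in triplicate. Cells were uninduced (no Ponasterone A), proliferating RKO colon carcinoma p27 or p21 subclones in DMEM with 10% FCS; values are −log EC50 (mol/l).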
row,Structure (SMILES),EC50 [nM]
1,"CCOc1ccc2[nH]c3c(c2c1)C[C@@]1(C)C(=O)N(CCCN2CCN(C)CC2)C(=O)N1[C@@H]3c1cccc(O)c1 (racemic) [Example 229, (3aSR,10RS)-6-Ethoxy-10-(3-hydroxy-phenyl)-3a-methyl-2-[3-(4-methyl-piperazin-1-yl)-propyl]-3a,4,9,10-tetrahydro-2,9,10a-triaza-cyclopenta[b]fluorene-1,3-dione]",39.8 to 251
2,"CN(C)CCCN1C(=O)N2[C@H](c3cccc(O)c3)c3[nH]c4ccc(Br)cc4c3C[C@@]2(C)C1=O (racemic) [Example 230, (3aSR,10RS)-6-Bromo-2-(3-dimethylamino-propyl)-10-(3-hydroyx-phenyl)-3a-methyl-3a,4,9,10-tetrahydro-2,9,10a-triaza-cyclopenta[b]fluorene-1,3-dione]",≤ 39.8
3,"CCN(CCO)CCCN1C(=O)N2[C@H](c3cccc(O)c3)c3[nH]c4ccc(Br)cc4c3C[C@@]2(C)C1=O (racemic) [Example 231, (3aSR,10RS)-6-Bromo-2-{3-[ethyl-(2-hydroxy-ethyl)-amino]-propyl}-10-(3-hydroyx-phenyl)-3a-methyl-3a,4,9,10-tetrahydro-2,9,10a-triaza-cyclopenta[b]fluorene-1,3-dione]",≤ 39.8
4,"C[C@@]12Cc3c([nH]c4ccc(Br)cc34)[C@@H](c3cccc(O)c3)N1C(=O)N(CCCN1CC=CCC1)C2=O (racemic) [Example 232, (3aSR,10RS)-6-Bromo-2-[3-(3,6-dihydro-2H-pyridin-1-yl)-propyl]-10-(3-hydroxy-phenyl)-3a-methyl-3a,4,9,10-tetrahydro-2,9,10a-triaza-cyclopenta[b]fluorene-1,3-dione]",≤ 39.8
5,"CC(C)NCCN1C(=O)N2[C@H](c3cccc(O)c3)c3[nH]c4ccc(Br)cc4c3C[C@@]2(C)C1=O (racemic) [Example 233, (3aSR,10RS)-6-Bromo-10-(3-hydroxy-phenyl)-2-(2-ispropylamino-ethyl)-3a-methyl-3a,4,9,10-tetrahydro-2,9,10a-triaza-cyclopenta[b]fluorene-1,3-dione]",≤ 39.8
6,"C[C@@]12Cc3c([nH]c4ccc(Br)cc34)[C@@H](c3cccc(O)c3)N1C(=O)N(CCCNCC1CC1)C2=O (racemic) [Example 234, (3aSR,10RS)-6-Bromo-2-[3-(cyclopropylmethyl-amino)-propyl]-10-(3-hydroxy-phenyl)-3a-methyl-3a,4,9,10-tetrahydro-2,9,10a-triaza-cyclopenta[b]fluorene-1,3-dione]",≤ 39.8
7,"C[C@@]12Cc3c([nH]c4ccc(Br)cc34)[C@@H](c3cccc(O)c3)N1C(=O)N(CCCNCCO)C2=O (racemic) [Example 235, (3aSR,10RS)-6-Bromo-2-[3-(2-hydroxy-ethylamino)-propyl]-10-(3-hydroxy-phenyl)-3a-methyl-3a,4,9,10-tetrahydro-2,9,10a-triaza-cyclopenta[b]fluorene-1,3-dione]",≤ 39.8
8,"C[C@@]12Cc3c([nH]c4ccc(OC(F)F)cc34)[C@@H](c3cccc(O)c3)N1C(=O)N(CCCN1CCOCC1)C2=O (racemic) [Example 236, (3aSR,10RS)-6-(1,1-Difluoro-methoxy)-10-(3-hydroxy-phenyl)-3a-methyl-2-(3-morpholin-4-yl-propyl)-3a,4,9,10-tetrahydro-2,9,10a-triaza-cyclopenta[b]fluorene-1,3-dione]",39.8 to 251
9,"C[C@@]12Cc3c([nH]c4ccc(OC(F)F)cc34)[C@@H](c3cccc(O)c3)N1C(=O)N(CCCN1CCCC1)C2=O (racemic) [Example 237, (3aSR,10RS)-6-(1,1-Difluoro-methoxy)-10-(3-hydroxy-phenyl)-3a-methyl-2-(3-pyrrolidin-1-yl-propyl)-3a,4,9,10-tetrahydro-2,9,10a-triaza-cyclopenta[b]fluorene-1,3-dione]",≤ 39.8
10,"C[C@@]12Cc3c([nH]c4ccc(OC(F)F)cc34)[C@@H](c3cccc(O)c3)N1C(=O)N(CCCN1CC=CC1)C2=O (racemic) [Example 238, (3aSR,10RS)-6-(1,1-Difluoro-methoxy)-2-[3-(2,5-dihydro-pyrrol-1-yl)-propyl]-10-(3-hydroxy-phenyl)-3a-methyl-3a,4,9,10-tetrahydro-2,9,10a-triaza-cyclopenta[b]fluorene-1,3-dione]",≤ 39.8
11,"C[C@@]12Cc3c([nH]c4ccc(OC(F)F)cc34)[C@@H](c3cccc(O)c3)N1C(=O)N(CCCN1CCCCC1)C2=O (racemic) [Example 239, (3aSR,10RS)-6-(1,1-Difluoro-methoxy)-10-(3-hydroxy-phenyl)-3a-methyl-2-(3-piperidin-1-yl-propyl)-3a,4,9,10-tetrahydro-2,9,10a-triaza-cyclopenta[b]fluorene-1,3-dione]",≤ 39.8
12,"CN1CCN(CCCN2C(=O)N3[C@H](c4cccc(O)c4)c4[nH]c5ccc(OC(F)F)cc5c4C[C@@]3(C)C2=O)CC1 (racemic) [Example 240, (3aSR,10RS)-6-(1,1-Difluoro-methoxy)-10-(3-hydroyx-phenyl)-3a-methyl-2-[3-(4-methyl-piperazin-1-yl)-propyl]-3a,4,9,10-tetrahydro-2,9,10a-triaza-cyclopenta[b]fluorene-1,3-dione]",39.8 to 251
13,"CC(=O)N1CCN(CCCN2C(=O)N3[C@H](c4cccc(O)c4)c4[nH]c5ccc(OC(F)F)cc5c4C[C@@]3(C)C2=O)CC1 (racemic) [Example 241, (3aSR,10RS)-2-[3-(4-Acetyl-piperazin-1-yl)-propyl]-6-(1,1-difluoro-methoxy)-10-(3-hydroxy-phenyl)-3a-methyl-3a,4,9,10-tetrahydro-2,9,10a-triaza-cyclopenta[b]fluoroene-1,3-dione]",39.8 to 251
14,"C[C@@]12Cc3c([nH]c4ccc(OC(F)F)cc34)[C@@H](c3cccc(O)c3)N1C(=O)N(CCCN1CC=CCC1)C2=O (racemic) [Example 242, (3aSR,10RS)-6-(1,1-Difluoro-methoxy)-2-[3-(3,6-dihydro-2H-pyridin-1-yl)-propyl]-10-(3-hydroxy-phenyl)-3a-methyl-3a,4,9,10-tetrahydro-2,9,10a-triaza-cyclopenta[b]fluorene-1,3-dione]",≤ 39.8
15,"C[C@@]12Cc3c([nH]c4ccc(OC(F)F)cc34)[C@@H](c3cccc(O)c3)N1C(=O)N(CCCN1CCCCCC1)C2=O (racemic) [Example 243, (3aSR,10RS)-2-(3-Azepan-1-yl-propyl)-6-(1,1-difluoro-methoxy)-10-(3-hydroxy-phenyl)-3a-methyl-3a,4,9,10-tetrahydro-2,9,10a-triaza-cyclopenta[b]fluorene-1,3-dione]",≤ 39.8
16,"CC1CCN(CCCN2C(=O)N3[C@H](c4cccc(O)c4)c4[nH]c5ccc(OC(F)F)cc5c4C[C@@]3(C)C2=O)CC1 (racemic) [Example 244, (3aSR,10RS)-6-(1,1-Difluoro-methoxy)-10-(3-hydroxy-phenyl)-3a-methyl-2-[3-(4-methyl-piperidin-1-yl)-propyl]-3a,4,9,10-tetrahydro-2,9,10a-triaza-cyclopenta[b]fluorene-1,3-dione]",39.8 to 251
17,"CCN(C)CCCN1C(=O)N2[C@H](c3cccc(O)c3)c3[nH]c4ccc(OC(F)F)cc4c3C[C@@]2(C)C1=O (racemic) [Example 247, (3aSR,10RS)-6-(1,1-Difluoro-methoxy)-2-[3-(ethyl-methyl-amino)-propyl]-10-(3-hydroxy-phenyl)-3a-methyl-3a,4,9,10-tetrahydro-2,9,10a-triaza-cyclopenta[b]fluorene-,3-dione]",≤ 39.8
18,"CNCCN1C(=O)N2[C@H](c3cccc(O)c3)c3[nH]c4cc(F)c(OC)cc4c3C[C@@]2(C)C1=O (racemic) [Example 248, (3aSR,10RS)-7-Fluoro-10-(3-hydroxy-phenyl)-6-methoxy-3a-methyl-2-(2-methylamino-ethyl)-3a,4,9,10-tetrahydro-2,9,10a-triaza-cyclopenta[b]fluorene-1,3-dione]",39.8 to 251
19,"CCNCCN1C(=O)N2[C@H](c3cccc(O)c3)c3[nH]c4cc(F)c(OC)cc4c3C[C@@]2(C)C1=O (racemic) [Example 249, (3aSR,10RS)-2-(2-Ethylamino-ethyl)-7-fluoro-10-(3-hydroxy-phenyl)-6-methoxy-3a-methyl-3a,4,9,10-tetrahydro-2,9,10a-triaza-cyclopenta[b]fluorene-1,3-dione]",≤ 39.8
20,"COc1cc2c3c([nH]c2cc1F)[C@@H](c1cccc(O)c1)N1C(=O)N(CCNC(C)C)C(=O)[C@]1(C)C3 (racemic) [Example 250, (3aSR,10RS)-7-Fluoro-10-(3-hydroxy-phenyl)-2-(2-isopropylamino-ethyl)-6-methoxy-3a-methyl-3a,4,9,10-tetrahydro-2,9,10a-triaza-cyclopenta[b]fluorene-1,3-dione]",≤ 39.8
21,"COc1cc2c3c([nH]c2cc1F)[C@@H](c1cccc(O)c1)N1C(=O)N(CCNCC2CC2)C(=O)[C@]1(C)C3 (racemic) [Example 251, (3aSR,10RS)-2-[2-(Cyclopropylmethyl-amino)-ethyl]-7-fluoro-10-(3-hydroxy-phenyl)-6-methoxy-3a-methyl-3a,4,9,10-tetrahydro-2,9,10a-triaza-cyclopenta[b]fluorene-1,3-dione]",≤ 39.8
22,"COc1cc2c3c([nH]c2cc1F)[C@@H](c1cccc(O)c1)N1C(=O)N(CCNCC(C)C)C(=O)[C@]1(C)C3 (racemic) [Example 252, (3aSR,10RS)-7-Fluoro-10-(3-hydroxy-phenyl)-2-(2-isobutylamino-ethyl)-6-methoxy-3a-methyl-3a,4,9,10-tetrahydro-2,9,10-triaza-cyclopenta[b]fluorene-1,3-dione]",39.8 to 251
23,"COCCNCCN1C(=O)N2[C@H](c3cccc(O)c3)c3[nH]c4cc(F)c(OC)cc4c3C[C@@]2(C)C1=O (racemic) [Example 253, (3aSR,10RS)-7-Fluoro-10-(3-hydroxy-phenyl)-6-methoxy-2-[2-(2-methoxy-ethylamino)-ethyl]-3a-methyl-3a,4,9,10-tetrahydro-2,9,10a-triaza-cyclopenta[b]fluorene-1,3-dione]",39.8 to 251

# Reference: US8530493B2, “Indolopyridines as Eg5 kinesin modulators” (4SC AG, priority 2006, dated 2013)
